# Experimental data: patent US20080021026A1, “BENZOTHIOPHENE INHIBITORS OF RHO KINASE” (priority 2006, published 2008)
# Molecular target: T1, recombinant N-terminal GST-tagged human Rho kinase 2 (ROCK2, amino acids 1-552) (Homo sapiens, UniProt O75116)
# T1 construct: ROCK2, amino acids 1-552; purchased Invitrogen Inc. PV3759
# Assay: In vitro Rho kinase assay (luciferase-based ATP consumption), ROCK2
# Assay type: biochemical
# Conditions: recombinant GST-tagged human ROCK2, luciferase-based ATP consumption; read-out: ROCK2 IC50
# In short: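 Luciferase-based luminescence of leftover ATP after 2 h at 30 °C, where inhibition raises signal, reports activity of GST-tagged ROCK2 (aa 1-552) at 0.82 μg/ml. Conditions: S6 peptide 100 μg/ml, […], pH 7.5 Tris buffer. Results given as percent of H-1152P control activity.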
# T1 sequence (O75116 1-552): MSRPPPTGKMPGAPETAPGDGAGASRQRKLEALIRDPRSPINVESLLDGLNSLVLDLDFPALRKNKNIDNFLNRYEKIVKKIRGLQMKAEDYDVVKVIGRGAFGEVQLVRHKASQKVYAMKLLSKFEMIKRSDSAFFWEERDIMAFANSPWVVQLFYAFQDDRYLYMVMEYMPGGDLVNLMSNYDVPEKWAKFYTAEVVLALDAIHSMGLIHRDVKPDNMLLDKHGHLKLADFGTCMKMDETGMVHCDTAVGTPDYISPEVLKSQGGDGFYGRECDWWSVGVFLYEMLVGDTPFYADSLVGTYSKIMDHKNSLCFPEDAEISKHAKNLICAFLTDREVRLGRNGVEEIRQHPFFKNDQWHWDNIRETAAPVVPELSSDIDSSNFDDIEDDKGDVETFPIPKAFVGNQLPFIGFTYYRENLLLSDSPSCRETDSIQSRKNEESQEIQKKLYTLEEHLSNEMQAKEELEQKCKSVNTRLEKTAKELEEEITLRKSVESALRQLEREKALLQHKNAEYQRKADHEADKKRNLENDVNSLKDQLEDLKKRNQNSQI
row,SMILES,IC50 [µM]
1,"Cc1c(-c2ccnc(N)n2)sc2ccc(C(=O)N(C)C3CCCCC3)cc12 [Example 482, CN(C1CCCCC1)C(═O)c2ccc3sc(c(C)c3c2)-c4ccnc(N)n4]",< 5
2,"Cc1c(-c2ccnc(N)n2)sc2ccc(C(=O)N3CCCCC3C)cc12 (stereo not shown) [Example 472, CC1CCCCN1C(═O)c2ccc3sc(c(C)c3c2)-c4ccnc(N)n4]",< 5
3,"Cc1c(-c2ccnc(N)n2)sc2ccc(C(=O)N3CCN(CCc4ccccc4)CC3)cc12 [Example 536, Cc1c(sc2ccc(cc12)C(═O)N3CCN(CC3)CCc4ccccc4)-c5ccnc(N)n5]",< 5
4,"CCCNC(=O)c1ccc2sc(-c3ccnc(N)n3)c(C)c2c1 [Example 335, CCCNC(═O)c1ccc2sc(c(C)c2c1)-c3ccnc(N)n3]",< 5
5,"Cc1c(-c2ccnc(N)n2)sc2ccc(C(=O)N3CCN(c4ccc(C(F)(F)F)cc4)CC3)cc12 [Example 565, Cc1c(sc2ccc(cc12)C(═O)N3CCN(CC3)c4ccc(cc4)C(F)(F)F)-c5ccnc(N)n5]",> 5
6,"Cc1c(-c2ccnc(N)n2)sc2ccc(C(=O)N(C)Cc3cccc4ccccc34)cc12 [Example 553, CN(Cc1cccc2ccccc12)C(═O)c3ccc4sc(c(C)c4c3)-c5ccnc(N)n5]",> 5
7,"Cc1c(-c2ccnc(N)n2)sc2ccc(C(=O)N3CCN(C(=O)OC(C)(C)C)C[C@H]3CO)cc12 [Example 561, Cc1c(sc2ccc(cc12)C(═O)N3CCN(C[C@H]3CO)C(═O)OC(C)(C)C)-c4ccnc(N)n4]",> 5
8,"Cc1c(-c2ccnc(N)n2)sc2ccc(C(=O)N3CCN(c4ccccc4Cl)CC3)cc12 [Example 569, Cc1c(sc2ccc(cc12)C(═O)N3CCN(CC3)c4ccccc4Cl)-c5ccnc(N)n5]",> 5
9,"Cc1c(-c2ccnc(N)n2)sc2ccc(C(=O)NCC3(O)CCCCC3)cc12 [Example 438, Cc1c(sc2ccc(cc12)C(═O)NCC3(O)CCCCC3)-c4ccnc(N)n4]",< 5
10,"C=CCN(C(=O)c1ccc2sc(-c3ccnc(N)n3)c(C)c2c1)C1CCCCC1 [Example 503, Cc1c(sc2ccc(cc12)C(═O)N(CC═C)C3CCCCC3)-c4ccnc(N)n4]",< 5
11,"Cc1c(-c2ccnc(N)n2)sc2ccc(C(=O)N3CCN(c4ccccc4F)CC3)cc12 [Example 525, Cc1c(sc2ccc(cc12)C(═O)N3CCN(CC3)c4ccccc4F)-c5ccnc(N)n5]",> 5
12,"Cc1c(-c2ccnc(N)n2)sc2ccc(C(=O)NCCCCO)cc12 [Example 354, Cc1c(sc2ccc(cc12)C(═O)NCCCCO)-c3ccnc(N)n3]",< 5
13,"Cc1c(-c2ccnc(N)n2)sc2ccc(C(=O)NCc3cccc(Cl)c3)cc12 [Example 408, Cc1c(sc2ccc(cc12)C(═O)NCc3cccc(Cl)c3)-c4ccnc(N)n4]",< 5
14,"Cc1c(-c2ccnc(N)n2)sc2ccc(C(=O)NCc3ccc(Cl)c(Cl)c3)cc12 [Example 446, Cc1c(sc2ccc(cc12)C(═O)NCc3ccc(Cl)c(Cl)c3)-c4ccnc(N)n4]",> 5
15,"Cc1c(-c2ccnc(N)n2)sc2ccc(C(=O)NC(C)CC(C)C)cc12 (stereo not shown) [Example 359, CC(C)CC(C)NC(═O)c1ccc2sc(c(C)c2c1)-c3ccnc(N)n3]",> 5
16,"Cc1c(-c2ccnc(N)n2)sc2ccc(C(=O)NC3CCN(Cc4ccccc4)C3)cc12 (stereo not shown) [Example 448, Cc1c(sc2ccc(cc12)C(═O)NC3CCN(C3)Cc4ccccc4)-c5ccnc(N)n5]",< 5
17,"Cc1c(-c2ccnc(N)n2)sc2ccc(C(=O)NCC3CCCCC3)cc12 [Example 369, Cc1c(sc2ccc(cc12)C(═O)NCC3CCCCC3)-c4ccnc(N)n4]",< 5
18,"Cc1c(-c2ccnc(N)n2)sc2ccc(C(=O)NN3CCN(C)CC3)cc12 [Example 373, CN1CCN(CC1)NC(═O)c2ccc3sc(c(C)c3c2)-c4ccnc(N)n4]",< 5
19,"Cc1c(-c2ccnc(N)n2)sc2ccc(C(=O)NCCc3ccc(F)cc3)cc12 [Example 405, Cc1c(sc2ccc(cc12)C(═O)NCCc3ccc(F)cc3)-c4ccnc(N)n4]",< 5

row,SMILES,IC50 [µM]
1,"CCOc1ccccc1CNC(=O)c1ccc2sc(-c3ccnc(N)n3)c(C)c2c1 [Example 425, CCOc1ccccc1CNC(═O)c2ccc3sc(c(C)c3c2)-c4ccnc(N)n4]",< 5
2,"Cc1ccc(S(=O)(=O)NCCNC(=O)c2ccc3sc(-c4ccnc(N)n4)c(C)c3c2)cc1 [Example 458, Cc1ccc(cc1)S(═O)(═O)NCCNC(═O)c2ccc3sc(c(C)c3c2)-c4ccnc(N)n4]",< 5
3,"CCN(Cc1ccccc1)C(=O)c1ccc2sc(-c3ccnc(N)n3)c(C)c2c1 [Example 499, CCN(Cc1ccccc1)C(═O)c2ccc3sc(c(C)c3c2)-c4ccnc(N)n4]",< 5
4,"Cc1c(-c2ccnc(N)n2)sc2ccc(C(=O)N3CCN(c4cccc(Cl)c4)CC3)cc12 [Example 544, Cc1c(sc2ccc(cc12)C(═O)N3CCN(CC3)c4cccc(Cl)c4)-c5ccnc(N)n5]",< 5
5,"Cc1c(-c2ccnc(N)n2)sc2ccc(C(=O)N(CCN(C)C)Cc3ccccc3)cc12 [Example 524, CN(C)CCN(Cc1ccccc1)C(═O)c2ccc3sc(c(C)c3c2)-c4ccnc(N)n4]",< 5
6,"Cc1c(-c2ccnc(N)n2)sc2ccc(C(=O)NCCN(C(C)C)C(C)C)cc12 [Example 416, CC(C)N(CCNC(═O)c1ccc2sc(c(C)c2c1)-c3ccnc(N)n3)C(C)C]",< 5
7,"Cc1c(-c2ccnc(N)n2)sc2ccc(C(=O)N(C)CCc3ccccn3)cc12 [Example 501, CN(CCc1ccccn1)C(═O)c2ccc3sc(c(C)c3c2)-c4ccnc(N)n4]",> 5
8,"CCN(CCCCO)C(=O)c1ccc2sc(-c3ccnc(N)n3)c(C)c2c1 [Example 490, CCN(CCCCO)C(═O)c1ccc2sc(c(C)c2c1)-c3ccnc(N)n3]",< 5
9,"Cc1c(-c2ccnc(N)n2)sc2ccc(C(=O)NCCc3ccc(Cl)cc3)cc12 [Example 428, Cc1c(sc2ccc(cc12)C(═O)NCCc3ccc(Cl)cc3)-c4ccnc(N)n4]",< 5
10,"Cc1c(-c2ccnc(N)n2)sc2ccc(C(=O)NC(C)CO)cc12 (stereo not shown) [Example 344, CC(CO)NC(═O)c1ccc2sc(c(C)c2c1)-c3ccnc(N)n3]",< 5
11,"Cc1c(-c2ccnc(N)n2)sc2ccc(C(=O)N3CCC(O)(c4ccc(Cl)cc4)CC3)cc12 [Example 558, Cc1c(sc2ccc(cc12)C(═O)N3CCC(O)(CC3)c4ccc(Cl)cc4)-c5ccnc(N)n5]",> 5
12,"Cc1c(-c2ccnc(N)n2)sc2ccc(C(=O)NCc3ccccc3)cc12 [Example 363, Cc1c(sc2ccc(cc12)C(═O)NCc3ccccc3)-c4ccnc(N)n4]",< 5
13,"COc1ccc(OC)c(CCNC(=O)c2ccc3sc(-c4ccnc(N)n4)c(C)c3c2)c1 [Example 449, COc1ccc(OC)c(CCNC(═O)c2ccc3sc(c(C)c3c2)-c4ccnc(N)n4)c1]",< 5
14,"Cc1c(-c2ccnc(N)n2)sc2ccc(C(=O)N(CCC#N)Cc3ccccc3)cc12 [Example 433, Cc1c(sc2ccc(cc12)C(═O)N(CCC#N)Cc3ccccc3)-c4ccnc(N)n4]",< 5
15,"Cc1c(-c2ccnc(N)n2)sc2ccc(C(=O)N3CC(C)OC(C)C3)cc12 (stereo not shown) [Example 488, CC1CN(CC(C)O1)C(═O)c2ccc3sc(c(C)c3c2)-c4ccnc(N)n4]",< 5
16,"Cc1c(-c2ccnc(N)n2)sc2ccc(C(=O)N3CCC(C)CC3)cc12 [Example 473, CC1CCN(CC1)C(═O)c2ccc3sc(c(C)c3c2)-c4ccnc(N)n4]",< 5
17,"Cc1c(-c2ccnc(N)n2)sc2ccc(C(=O)N(C)Cc3ccccc3)cc12 [Example 492, CN(Cc1ccccc1)C(═O)c2ccc3sc(c(C)c3c2)-c4ccnc(N)n4]",< 5
18,"COCC(C)NC(=O)c1ccc2sc(-c3ccnc(N)n3)c(C)c2c1 (stereo not shown) [Example 352, COCC(C)NC(═O)c1ccc2sc(c(C)c2c1)-c3ccnc(N)n3]",> 5
